row,Structure (SMILES),melting point [°C]
1,CC(=O)c1ccc(NCc2cc3c(cc2O)CCCO3)cc1,177 to 179
2,CC(C)(N)c1ccc(-c2nc(Nc3cccc(CCO)c3)ncc2Cl)cc1,184 to 185
3,CCn1c(=O)c(-c2c(Cl)cccc2Cl)cc2cnc(Nc3cc(OC)c(OC)c(OC)c3)nc21,275 to 278
4,CCc1cnc2ccnn2c1NCc1ccc(-c2ccccc2C#N)cc1,151 to 153
5,N#Cc1cccc(-c2nc3sccn3c2-c2ccnc(N[C@@H]3CCCN(S(=O)(=O)c4ccc(Cl)cc4)C3)n2)c1,144 to 146
6,O=c1c2c(CCCc3ccccc3)n[nH]c2c2cccnc2n1-c1ccccc1,202 to 204
7,CC(C)(C)OC(=O)C[C@H](NC(=O)CCCC(=O)Nc1ccc(C#N)cc1)C(=O)N[C@@H](Cc1ccccc1)C(=O)OC(C)(C)C,64 to 66
8,COc1cccc2c(=O)c3c(O)cc(OCC(S)CCl)cc3oc12 (stereo not given),125
9,COC(=O)[C@H]1C[C@@H](NC(=O)OC(C)(C)C)c2c(Cl)cc(Cl)cc2N1 (relative stereo),172 to 173
10,Cc1noc(-c2cccc(CN3CCN(c4ccc(N)cc4)CC3)c2)n1,106 to 108
11,CC(=O)[C@@H]1CC(=S)N(C(C)=O)C1,49 to 51
12,O=c1c(CCCCBr)c(O)c2cccnc2n1-c1ccccc1,169 to 171
13,CC1(C)CC(=O)C2C3CCCCC3C2(C)C1 (stereo not given),76.6 to 77.4
14,N#Cc1ccc(C=NO)cc1,174 to 176
15,COC(=O)C(O)c1cc2c(cc1Cl)OCO2 (stereo not given),66 to 68
16,COC(=O)Nc1cc(F)c(C#N)cc1F,129
17,O=C(CN1CCCCC1)Nc1ccc2cc3ccc(NC(=O)CN4CCCCC4)cc3nc2c1,192 to 194
18,O=C(NCCCCCOc1cc(CN2CCCCC2)ccn1)c1cn[nH]c1,105 to 106
19,Cc1c(-c2ccccc2)sc(N2C(=O)c3ccccc3C2=O)c1C(=O)c1ccc(Cl)cc1,223 to 225
20,CCCCOc1ccc2c(=O)c(S(C)=O)cn(C)c2c1 (stereo not given),148 to 150
21,COc1nc(Cl)nc(NC#N)n1,> 260
22,CC(=O)Oc1ccc(C(C)(C)C)cc1C1(OC(C)=O)C(=O)c2ccccc2C1=O,195 to 196
23,O=C1c2ccccc2CN1c1cccc(CCN2CCN(c3nsc4ccccc34)CC2)c1,154 to 155
24,CC(C)Oc1cc(Oc2ccc(S(C)(=O)=O)cn2)cc2cc(C3=NCC(CC(C)(C)O)S3)[nH]c12 (stereo not given),151 to 153

row,Structure (SMILES),melting point [°C]
1,C=C(C)C(=O)NC1=CC(C(=O)O)C(O)(C(C)=O)C=C1 (stereo not given),192
2,Cn1c(=O)c2c(ncn2CCCN2CC=C(c3c[nH]c4ccccc34)CC2)n(C)c1=O,243
3,O=C(c1ccccc1)N1CCC(COc2ccccc2)CC1,95 to 96
4,CC(c1noc(C(F)F)n1)N1C(=O)C2(COc3cc4c(cc32)OCO4)c2c(Cl)cccc21 (stereo not given),179 to 182
5,CC(=O)Nc1c(C(=O)c2ccccc2)[nH]c2cc(Cl)ccc12,212 to 213
6,Cn1cc(C(=O)NCc2ccc(Cl)cc2)c(=O)c2cc(CO)cc(I)c21,242 to 244
7,CC(=O)ON1Cc2ccccc2C1=O,69 to 71
8,Cc1ccc(S(=O)(=O)C(=[N+]=[N-])S(C)(=O)=O)cc1,108 to 109
9,CCOC(=O)c1cccc(C#CC2(O)CN3CCC2CC3)c1 (stereo not given),155 to 156
10,COc1ccccc1N(CC1OCCO1)C(=O)c1ccc(CCl)cc1,126 to 129
11,CCn1nnnc1NCC(O)COc1cccc(CN2CCCCC2)c1 (stereo not given),111 to 113
12,N#Cc1cc(SC(F)(F)F)[nH]c1-c1ccc(Cl)cc1,203 to 205
13,CCCOc1ccc2c(c1)C(OS(=O)(=O)F)=C(C(=O)OC)[C@H]2c1ccc2c(c1)OCO2,160 to 161
14,CC(=O)Oc1cc(-n2c(=O)cc(C(F)(F)F)n(C)c2=O)c(F)cc1Cl,99 to 101
15,COc1cc(-n2c(-c3ccc(SC)cc3)nc(SC)c(C#N)c2=O)cc(OC)c1OC,192 to 195
16,COc1ccc(-n2c(CC(=O)O)c(C(=O)O)c3cc(Oc4ccc(C(F)(F)F)cc4)ccc32)cc1,248 to 250
17,CCCn1c(=O)c2c(nc(/C=C/c3ccc(OC(C)=O)c(OC)c3)n2C)n(CCC)c1=O,179 to 181
18,CCOCCn1c(N2CCCN(CCC3(c4ccccc4)CCN(C(=O)c4cc(OC)c(OC)c(OC)c4)C3)CC2)nc2ccccc21 (stereo not given),82 to 94
19,CC1=C(C(=O)OCCN(C)C)C(c2cccc([N+](=O)[O-])c2)C(C(=O)OCC2CC2)=C(C)N1 (stereo not given),125 to 126
20,C=CCOc1ccc(C=CC(=O)c2c(O)cc(OC)cc2OC)cc1,112
21,CON=Cc1c(C(=O)OC)[nH]c2c(C)ccc(C)c12,107 to 108
22,COC(=O)c1cc(Cl)ccc1-n1c(CCl)nc2ccccc2c1=O,135 to 136
23,N#Cc1c(C(F)(F)C(F)(F)F)nn(-c2c(Cl)cc(C(F)(F)F)cc2Cl)c1N,160 to 162
24,CC(C)(C)c1ccc(CCCC(=O)CC2CCCCC2)cc1NC(=O)CC1c2ccccc2Oc2ccccc21,193 to 194

row,Structure (SMILES),melting point [°C]
1,Cc1oc(-c2ccccc2)nc1CCc1ccc(CO)cc1,103 to 104
2,CCCOC(=O)C1CCC2C3CCC4CC(O)C(O)CC4(C)C3C(NCCC(C)C)CC12C (stereo not given),140 to 142
3,COc1ccc(C(=O)N2CC3CC2C(=O)O3)cc1OC (stereo not given),132
4,CC1(C)OCC(CCn2cnc3c(N)nc(N)nc32)CO1,202 to 204
5,C#Cc1cccc(Oc2nc(Oc3cccc(C#C)c3)nc(-c3ccccc3)n2)c1,139 to 144
6,CC(=O)C1(c2ccccc2)CCN(C(=O)C(c2ccccc2)n2cnc3[nH]ncc3c2=S)CC1 (stereo not given),125 to 128
7,Brc1cccc(-c2cc(-c3cccc(Br)c3)on2)c1,155 to 156
8,CN(C)C(=O)N[C@H]1CC[C@H](CCN2CCN(c3cccc(Cl)c3Cl)CC2)CC1,212 to 214
9,CCN1Cc2cccnc2N(c2cccc(C(F)(F)F)c2)C1=O,155 to 157
10,CCN(CC)CCOc1ccc(Nc2ncc3c(n2)N(C)C(=O)N(c2c(Cl)cc(Cl)cc2Cl)C3)cc1,142
11,O=C(O)CNC(=O)c1ccc(C(=O)NS(=O)(=O)c2ccc(C(=O)NCCc3ccccc3)cc2)cn1,263 to 265
12,CCCCCCCCCCCCCCCC(=O)NC(CCCCCCCCCCCCCCC)CC(=O)NCCC(=O)NC(Cc1ccccc1)C(=O)O (stereo not given),169 to 174
13,CS(=O)(=O)OCCn1c2ccc(O)cc2c2c3c(c(-c4ccccc4)cc21)C(=O)NC3=O,271 to 276
14,COc1ccc(C(=O)Nc2ccccc2C(c2ccc(O)cc2)c2ccc(O)cc2)cc1,154 to 156
15,CNC(=O)N(O)C(C)C#Cc1ccccc1 (stereo not given),136 to 137
16,CCc1ccc2c(c1)C=Cc1oc(C)nc1C2c1cn(Cc2cccc(C(=O)Nc3n[nH]c(C(F)(F)F)n3)c2)c(=O)[nH]c1=S (stereo not given),142 to 145
17,Cc1cccc(C2=CCN(CCCn3c(=O)[nH]c4cccc(C)c4c3=O)CC2)n1,200 to 203
18,N=C(N)c1ccc(-c2ccc(-c3ccc(-c4ccc(C(=N)N)cn4)o3)o2)nc1,> 300
19,COc1ccc(C)cc1NC(=O)Nc1ccc(N2CCN(C(=O)Nc3cc(OCCO)ccc3Cl)CC2)nc1,132 to 134
20,NCCCCNC(=O)C1(NC(=O)CCCC(=O)O)Cc2ccccc2C1,132
21,FC(F)(F)c1ccc(COc2ccnc(CSc3nc4cscc4[nH]3)c2)cc1,141 to 143
22,CCN(CC)C(=O)Nc1ccc(S(=O)(=O)N2C(=O)C(NCCCC(N)=O)(c3ccccc3Cl)c3cc(Cl)ccc32)cc1 (stereo not given),192
23,N#Cc1ccccc1-c1ccc(CO)cn1,152 to 153
24,CCCCc1nc(CO)c(Sc2ccccc2)n1Cc1ccc(-c2ccccc2C(=O)O)cc1,220

row,Structure (SMILES),melting point [°C]
1,CCC(CC(O)C(CC1CCCCC1)NC(=O)C(Cc1c[nH]cn1)NC(=O)C(Cc1ccccc1)C(=O)NO)C(C)C (stereo not given),123
2,CCCCCCCCCCCCCCCCCCOc1ccc2ccccc2c1,64 to 68
3,CCOC(=O)c1nnc(C(=O)OCC)nn1,85 to 90
4,COc1c(N2CC3CC3(CN)C2)c(F)cc2c(=O)c(C(=O)O)cn(C3CC3)c12 (stereo not given),194 to 196
5,Cc1oc(-c2cccs2)nc1COc1ccc(CCCCn2ccnc2)cc1,85 to 86
6,COc1ccc(C(=O)c2ccco2)cc1OC,112 to 114
7,CC(C)(C)c1cc(C2SC(CC(=O)O)C(=O)N2CCCO)cc(C(C)(C)C)c1O (stereo not given),227 to 228
8,COc1cc(OC)c(C23CC4CC(CC(C4)C2)C3)cc1C(=O)O,213 to 214
9,CC(O)CNc1c(Br)cnc2ccccc12 (stereo not given),82 to 83
10,COc1ccc(-c2nc3ncn(C)c(=S)n3n2)cc1,> 300
11,O=C1C(=O)c2ccccc2C2=C1SCC1(CCN(CC3CCCCO3)CC1)O2 (stereo not given),135 to 137
12,COc1cc(C=Cc2ccc(=O)[nH]n2)cc(OC)c1OC,194 to 196
13,CCOC(=O)CN1C(=O)COc2cc(F)c([N+](=O)[O-])cc21,79 to 81
14,COCN1C(C)=C(C(=O)OCOC(=O)C(C)(C)C)C(c2ccccc2)C(C(=O)OCOC(=O)C(C)(C)C)=C1C,89 to 90
15,O=C(Nc1ccc2cc(CN3CCCC3)cnc2c1)c1ccc(-c2ccccc2)cc1F,166
16,Cc1ccc(S(=O)(=O)OC2COc3ccc4ncccc4c3C2)cc1 (stereo not given),168 to 170
17,CC1=NN(c2cccc(S(N)(=O)=O)c2)C(=O)C1=c1[nH]c(=c2[nH]c(=C3C(=O)N(c4cccc(S(N)(=O)=O)c4)N=C3C)c3ccccc23)c2ccccc12,> 300
18,CNC(=O)N1CCSC1c1ccc(O)cc1 (stereo not given),218 to 220
19,CC(=O)Oc1cc2c(c(OC(C)=O)c1)C1CCC3(C)C(=O)CCC3C1CC2 (stereo not given),179 to 180
20,c1ccc2oc(COc3ccc(CCCn4ccnc4)cc3)nc2c1,81 to 82
21,FC(F)(F)c1cccc(-c2ccn3nccc3n2)c1,117 to 118
22,COc1cccc(NS(=O)(=O)c2ccc(N)cc2)c1,142 to 145
23,COCc1oc(-c2nn(Cc3ccccc3F)c3ccccc23)nc1C,86 to 88

# — a melting point compilation (Tetko et al.; mined from patent text by program, amines drawn as free bases though some values may be those of a salt)
